Assay: Comment Code material properties: vapor pressure, ClogP, probability of ingredient color instability, odor detection threshold, melamine formaldehyde PMC headspace response ratio and leakage, liquid dish neat product liquid-air partition coefficient
Format: physicochemical
[1] = cell strings several class symbols together, each letter is one property class of L1
[2] = Table 1 materials, each letter of the code is one property class (vapor pressure, ClogP, color instability, odor detection threshold, PMC headspace ratio, PMC leakage, liquid dish liquid-air partition coefficient)

| Comment Code [1] | Comment Code [2] | SMILES |
| --- | --- | --- |
|  | DEFHJK | CC(=O)OC(C)CCC=C(C)CCC=C(C)C (stereo not shown) [Material 881] |
| ACEFHKL |  | CCC/C=C\CCOC(C)=O [Material 882] |
|  | BCFHJK | CCCCCCCC/C=C\CC=O [Material 884] |
| BCEFGIJK |  | C=C[C@](C)(O)CCC=C(C)C [Material 888] |
| ACHIJKL |  | CC(C)=CCCC(C)CC=O (stereo not shown) [Material 889] |
|  | DEFHJK | CC(=O)OC(C)CC/C=C(\C)CCC=C(C)C (stereo not shown) [Material 890] |
| ACHIJKL |  | CC(C)=CCCC(C)CC=O (stereo not shown) [Material 891] |
| BCHIJKL |  | CC(C)=CCCC(C)CCO (stereo not shown) [Material 899] |
| BCHIJKL |  | CC(C)=CCCC(C)CCO (stereo not shown) [Material 900] |
| BDEFHJKL |  | C/C=C(\C)C(=O)OCCCCCC [Material 909] |
|  | BDHJK | CC(C)c1cccc(C(C)CC=O)c1 (stereo not shown) [Material 914] |
|  | BDEFHJK | C=CC(C)(CCC=C(C)C)OC(C)OCC (stereo not shown) [Material 916] |
|  | DEFHJKL | CC(C)=CCCC(C)C12CC=C(C)C1C2 (stereo not shown) [Material 926] |
|  | ACEFHK | CCC=CCC=CCCO [Material 929] |
|  | BDFHJK | CCCCCCCCCCC=CC=O [Material 930] |
|  | DEFHJK | CCCCCC(=O)Oc1ccc(C)cc1 [Material 939] |
|  | BDEFHIJKL | CCCCCCC1OC(=O)CC1C (stereo not shown) [Material 941] |
|  | BDEFHJK | CCCCC/C=C/C=C\C(=O)OCC [Material 942] |
|  | BDEFHJK | CCCCCC=CC=CC(=O)OCC [Material 951] |
|  | ACFHIJKL | CC1(C)C2CC=C(CC=O)C1C2 (stereo not shown) [Material 973] |
| BDFHK |  | CC(C)c1ccc(CC=O)cc1 [Material 977] |
|  | DFHJK | CC(C)=CCCC1=CCC(C)(C=O)CC1 (stereo not shown) [Material 988] |
| BDHJK |  | CC(C)(C)c1ccc(CC=O)cc1 [Material 994] |
|  | BDEFHJK | CCC=CCC=CC=CC(=O)OCC [Material 1000] |
| BCHIJKL |  | C=C(C)CCC[C@H](C)CCO [Material 1004] |

The remaining lines, values behind:

| SMILES | Comment Code [1] | Comment Code [2] |
| --- | --- | --- |
| CC=CC(=O)C1C(C)=CCCC1(C)C (stereo not shown) [Material 880] | BDHIJK |  |
| CC1=CC(=O)C2CC1C2(C)C (stereo not shown) [Material 883] | ACEFGIJKL |  |
| C/C(=C/C#N)CCc1ccccc1 [Material 892] |  | DEFHJK |
| CC1CCC2(O1)C(C)(C)CCCC2(C)O (stereo not shown) [Material 893] |  | DFHIJK |
| C/C(=C\C#N)CCc1ccccc1 [Material 894] |  | CEFHJK |
| C=C(C)C1CCC(C)C(O)C1 (stereo not shown) [Material 897] |  | BCEFHIJKL |
| CC1=CC[C@@H]2C[C@H]1C2(C)C [Material 901] | ADEFGIJKL |  |
| C=C(C)C1CC=C(C)C(=O)C1 (stereo not shown) [Material 902] | ACGIJKL |  |
| CC1=CC[C@H]2C[C@@H]1C2(C)C [Material 903] | ADEFGIJKL |  |
| CCC(C)C(=O)OC (stereo not shown) [Material 904] | ACEFGIKL |  |
| CC(=CCC1CC=C(C)C1(C)C)CO (stereo not shown) [Material 908] |  | CHJK |
| CC1=CC2CC(C3OCCO3)C1CC2C(C)C (stereo not shown) [Material 912] |  | DEFHJK |
| C=C1CCCC(C)(C)C1C=C(C)C(C)=O (stereo not shown) [Material 913] |  | BDHIJK |
| C=CCOC(=O)COC1CCCCC1 [Material 918] | CHJK |  |
| CCC(=O)OC1CC2CC1C1CC=CC21 (stereo not shown) [Material 919] | CEFHJK | CEFHJK |
| CC1=C2CCC(C)C2CC(C(C)(C)O)CC1 (stereo not shown) [Material 920] |  | DEFHJK |
| CC12CCCC(C)(CC1)C2=NO [Material 921] | CFHIJK |  |
| O=C(Cc1ccccc1)OCc1ccccc1 [Material 922] |  | DHJ |
| C/C=C/c1cc(OC)c(OC)cc1OC [Material 924] |  | BCFGJK |

| SMILES | Comment Code [1] | Comment Code [2] |
| --- | --- | --- |
| CC(C)(C=O)CC1=CCC2CC1C2(C)C (stereo not shown) [Material 925] |  | BDFHJK |
| Cc1cccc(CCO)c1 [Material 928] |  | BCEFHIK |
| C=C(OC(C)=O)c1ccccc1 [Material 931] | ACEFHIK |  |
| CC1CCC2(O)C(C)(C)C3CCC2(C)C1C3 (stereo not shown) [Material 933] | DEFHIJK | DEFHIJK |
| Cc1ccc(C(C)C)cc1 [Material 940] | ADGIJKL |  |
| N#CC(=C1CCCCC1)c1ccccc1 [Material 945] |  | DFHJK |
| C=C(C)C1CC=C(C=O)CC1 (stereo not shown) [Material 946] |  | ACHIJK |
| C=C(C)C1CC=C(COC(C)=O)CC1 (stereo not shown) [Material 947] |  | DFHJK |
| C=C(C)C1CC=C(CO)CC1 (stereo not shown) [Material 948] |  | CHIJK |
| CC(C)OCCc1ccccc1 [Material 950] |  | ACEFHJKL |
| c1ccc(CCOC2CCCCC2)cc1 [Material 953] |  | DEFHJK |
| CCC(C)C(=O)OCCc1ccccc1 (stereo not shown) [Material 954] |  | DEFHJK |
| OCCc1ccccc1 [Material 955] |  | BCEFGIK |
| O=COCCc1ccccc1 [Material 956] | ACEFHK |  |
| CC(C)C(=O)OCCc1ccccc1 [Material 958] | DHJK |  |
| O=C(Cc1ccccc1)OCCc1ccccc1 [Material 959] |  | DHJ |
| C/C=C(\C)C(=O)OCCc1ccccc1 [Material 960] | DHJK |  |
| O=C(Oc1ccccc1)c1ccccc1 [Material 965] |  | DFHJK |
| O=C(OCCc1ccccc1)c1ccccc1 [Material 967] |  | DHJ |

| SMILES | Comment Code [1] | Comment Code [2] |
| --- | --- | --- |
| C=C(C)C(=O)OCCc1ccccc1 [Material 971] | DHJK |  |
| C=C1C(O)CC2CC1C2(C)C (stereo not shown) [Material 974] |  | BCEFGIJKL |
| CC(=O)CCc1ccc2c(c1)OCO2 [Material 976] |  | CEFGJ |
| CC(C)(C)C(=O)OC1CC2CC1C1CC=CC21 (stereo not shown) [Material 978] | DEFHJK | DEFHJK |
| CC1C[C@H]2C3CCC(C3)[C@H]2CC1=O (stereo partly shown) [Material 980] |  | CEFGJKL |
| C=C(C)C1CCC(C)(O)C1C (stereo not shown) [Material 981] | BCEFGIJKL |  |
| CC(C)C1=CCC(C)(O)CC1 (stereo not shown) [Material 982] |  | BCGIJK |
| COc1ccc(CC(C)=O)cc1 [Material 983] | BCEFHK |  |
| CC1=CCC(/C=C/C(C)(C)C(C)O)C1(C)C (stereo not shown) [Material 985] |  | DHJK |
| C/C=C\C(=O)/C(C)=C(/C)C(C)C [Material 986] | ADHIJKL |  |
| CCCc1ccc(OC)cc1 [Material 987] | ADEFHKL |  |
| CC(O)CO (stereo not shown) [Material 993] |  | ACEFGIKL |
| CCC(C)(C)C1CCC(O)CC1 (stereo not shown) [Material 995] | BDEFHIJK |  |
| Cc1ccc(OC(=O)Cc2ccccc2)cc1 [Material 998] |  | DFHJ |
| CC1=CCC2CC1C2(C)C (stereo not shown) [Material 1001] | ADEFGIJKL |  |
| CC(=O)CCc1ccc(O)cc1 [Material 1002] | CEFGIK |  |
| CC1CC(C)(C)OC(Cc2ccccc2)O1 (stereo not shown) [Material 1003] |  | DEFHJK |
| CCOC(=O)OC1C(C)CCC(C)C1C (stereo not shown) [Material 1005] | BDEFHJKL |  |
| CC1CC(C)(c2ccccc2)CO1 (stereo not shown) [Material 1006] |  | BDEFHJK |

— patent publication US20160089464A1, “MALODOR REDUCTION COMPOSITIONS” (The Procter & Gamble Company, priority 2014, published 2016)
